Source: patent US20260022143A1, “Cyclic Peptide Inhibitors of IL-23” (JANSSEN PHARMACEUTICA NV, priority 2022, published 2026)
Counter-ions that a name gives are not always drawn. Starred links: 1 amine or outer side, 2 acyl side, 3 side chain; linkers in the order of their positions; H or OH if unused. Positions of bridges follow the written chain, without caps; N, C: chain ends. Non-standard residues stand in square brackets, D forms with d. Residues, ends and D or L forms follow the SMILES beside them. *: point of attachment. Me3N+(CH2)2O(CH2)2O(CH2)2CO = C[N+](C)(C)CCOCCOCCC(=O)*; Trp(7-Me) = Cc1cccc2c(C[C@H](N)C(=O)O)c[nH]c12; Hexanoyl(6-NMe3+) = C[N+](C)(C)CCCCCC(=O)*; dLys(Me3) = C[N+](C)(C)CCCC[C@@H](N)C(=O)O; X63 = C[N+]1(C)CCC(N[*:1])(C(=O)[*:2])CC1; Dab(NMeAc) = CC(=O)N(C)CC[C@H](N)C(=O)O; 2Nal = N[C@@H](Cc1ccc2ccccc2c1)C(=O)O; AEF = NCCOc1ccc(C[C@H](N)C(=O)O)cc1; 3Pal = N[C@@H](Cc1cccnc1)C(=O)O; Lys(Me) = CNCCCC[C@H](N)C(=O)O; Pen = CC(C)(S)[C@H](N)C(=O)O; Thp = NC1(C(=O)O)CCOCC1; Dap = NC[C@H](N)C(=O)O; Me2NCH2CH2 = CN(C)CC*; Tfa = O=C(C(F)(F)F)*; Sar = CNCC(=O)O

How the values were obtained:
[1] = Exposed Polar Surface Area (EPSA); type: physicochemical; details: SFC on Chirex 3014 column; sample 1 mM DMSO stock; read-out: EPSA
Procedure, shortened: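 SFC retention on a Chirex 3014 (S)-valine/(R)-1-(α-naphthyl)ethylamine column, 35 °C, CO2 with MeOH (20 mM ammonium formate) gradient 5–60% at 20%/min, 14 MPa outlet. Retention times converted to EPSA (Å^2) via linear calibration with 8 standards; samples from 1 mM DMSO stock, run in duplicate.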

IL-23R = biological target: T1, IL-23R (Homo sapiens, UniProt Q5VWK5); assay: IL23R Reporter Assay; type: cell-based; details: HEK293 cells containing IL-23R, IL-12RP1 and STAT-inducible firefly luciferase reporter; 10 ng/mL IL-23 (EC90); 5 h at 37° C.; read-out: IL23R Reporter Assay
T1 construct: host or cells: HEK293
T1 sequence (Q5VWK5 24-629): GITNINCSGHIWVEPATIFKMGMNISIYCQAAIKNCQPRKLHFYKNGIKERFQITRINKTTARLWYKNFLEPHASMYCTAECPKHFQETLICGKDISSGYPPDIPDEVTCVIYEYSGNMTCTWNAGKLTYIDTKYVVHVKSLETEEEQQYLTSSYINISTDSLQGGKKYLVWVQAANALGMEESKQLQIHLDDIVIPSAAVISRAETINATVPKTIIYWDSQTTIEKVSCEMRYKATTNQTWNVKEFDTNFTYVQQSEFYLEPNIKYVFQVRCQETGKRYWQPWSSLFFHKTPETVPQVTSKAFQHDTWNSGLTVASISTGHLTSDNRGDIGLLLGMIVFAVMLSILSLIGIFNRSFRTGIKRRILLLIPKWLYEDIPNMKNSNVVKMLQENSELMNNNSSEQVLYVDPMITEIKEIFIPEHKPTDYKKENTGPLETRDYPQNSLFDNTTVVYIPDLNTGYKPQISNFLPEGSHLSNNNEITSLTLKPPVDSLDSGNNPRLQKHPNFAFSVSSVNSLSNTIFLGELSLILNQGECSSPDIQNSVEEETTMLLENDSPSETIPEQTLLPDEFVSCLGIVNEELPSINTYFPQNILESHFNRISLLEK

SMILES	EPSA [1] [A^2]	IC50 (IL-23R) [nM]
CC(=O)NCCCC[C@@H]1NC(=O)[C@H](Cc2c[nH]c3c(C)cccc23)NC(=O)[C@H]([C@@H](C)O)NC(=O)[C@H](CC(N)=O)NC(=O)[C@@H](NC(=O)[C@@H](CCCCNC(=O)CCCCC[N+](C)(C)C)NC(C)=O)C(C)(C)SSC(C)(C)[C@@H](C(=O)N[C@@H](Cc2ccc(OCCN)cc2)C(=O)N[C@@H](Cc2ccc3ccccc3c2)C(=O)NC2(C(=O)N[C@@H](CCCCNC(C)=O)C(=O)N[C@@H](CC(N)=O)C(=O)N[C@@H](Cc3cccnc3)C(=O)N(C)CC(N)=O)CCOCC2)NC1=O [compound 87] (Ac-[dK](Hexanoyl(6-NMe3+))[Pen]NT[Trp(7-Me)]K(Ac)[Pen][AEF][2Nal][Thp]K(Ac)N[3Pal][Sar]-NH2; disulfide 2-7 (inferred))	159	4.2
CC(=O)NCCCC[C@@H]1NC(=O)[C@H](Cc2c[nH]c3c(C)cccc23)NC(=O)[C@H]([C@@H](C)O)NC(=O)[C@H](CC(N)=O)NC(=O)[C@@H](NC(=O)CCOCCOCC[N+](C)(C)C)C(C)(C)SSC(C)(C)[C@@H](C(=O)N[C@@H](Cc2ccc(OCCN)cc2)C(=O)N[C@@H](Cc2ccc3ccccc3c2)C(=O)NC2(C(=O)N[C@@H](CCCCNC(C)=O)C(=O)N[C@@H](CC(N)=O)C(=O)N[C@@H](Cc3cccnc3)C(=O)N(C)CC(N)=O)CCOCC2)NC1=O [compound 90, cPEG3aCO-Pen(3)-N-T-7MeW-K(Ac)-Pen(3)-AEF-2Nal-THP-K(Ac)-N-3Pya-Sar-CONH2] ({Me3N+(CH2)2O(CH2)2O(CH2)2CO}-[Pen]NT[Trp(7-Me)]K(Ac)[Pen][AEF][2Nal][Thp]K(Ac)N[3Pal][Sar]-NH2; disulfide 1-6)	164	3.7
Cc1cccc2c(C[C@@H]3NC(=O)[C@H]([C@@H](C)O)NC(=O)[C@H](CC(=O)N(C)C)NC(=O)[C@@H](NC(=O)[C@@H](CCCCNC(=O)CCCCC[N+](C)(C)C)NC(=O)C(F)(F)F)C(C)(C)SSC(C)(C)[C@@H](C(=O)N[C@@H](Cc4ccc(OCCN(C)C)cc4)C(=O)N[C@@H](Cc4ccc5ccccc5c4)C(=O)NC4(C(=O)N[C@@H](CCC(=O)N(C)C)C(=O)N[C@@H](CC(N)=O)C(=O)N[C@@H](Cc5cccnc5)C(=O)N(C)CC(=O)N(C)C)CCOCC4)NC(=O)[C@H](CCC(=O)N(C)C)NC3=O)c[nH]c12 [compound 96, CF3CO-k(5cpa)-Pen(3)-N(N(Me)2)-T-7MeW-Q(N(Me)2)-Pen(3)-AEF(N(Me)2)-2Nal-THP-Q(N(Me)2)-N-3Pya-Sar-CON(Me)2] (Tfa-[dK](Hexanoyl(6-NMe3+))[Pen]D(NMe2)T[Trp(7-Me)]E(NMe2)[Pen]Y(Me2NCH2CH2)[2Nal][Thp]E(NMe2)N[3Pal][Sar]-NMe2; disulfide 2-7)	139	4.6
Cc1cccc2c(C[C@@H]3NC(=O)[C@H]([C@@H](C)O)NC(=O)[C@H](CC(=O)N(C)C)NC(=O)[C@@H](NC(=O)CCCCC[N+](C)(C)C)C(C)(C)SSC(C)(C)[C@@H](C(=O)N[C@@H](Cc4ccc(OCCN(C)C)cc4)C(=O)N[C@@H](Cc4ccc5ccccc5c4)C(=O)NC4(C(=O)N[C@@H](CCC(=O)N(C)C)C(=O)N[C@@H](CC(N)=O)C(=O)N[C@@H](Cc5cccnc5)C(=O)N(C)CC(=O)N(C)C)CC[N+](C)(C)CC4)NC(=O)[C@H](CCC(=O)N(C)C)NC3=O)c[nH]c12 [compound 100, 5cpaCO-Pen(3)-N(N(Me)2)-T-7MeW-Q(N(Me)2)-Pen(3)-AEF(N(Me)2)-2Nal-Pip(NMe2)-Q(N(Me)2)-N-3Pya-Sar-CON(Me)2] ({Hexanoyl(6-NMe3+)}-[Pen]D(NMe2)T[Trp(7-Me)]E(NMe2)[Pen]Y(Me2NCH2CH2)[2Nal][X63]E(NMe2)N[3Pal][Sar]-NMe2; disulfide 1-6)	139	9.3

Second part, the compound after the results:

EPSA [1] [A^2]	IC50 (IL-23R) [nM]	SMILES
146	2.1	CC(=O)N(C)CC[C@@H]1NC(=O)[C@H](Cc2c[nH]c3c(C)cccc23)NC(=O)[C@H]([C@@H](C)O)NC(=O)[C@H](CC(N)=O)NC(=O)[C@@H](NC(=O)C(F)(F)F)C(C)(C)SSC(C)(C)[C@@H](C(=O)N[C@@H](Cc2ccc(OCCN(C)C)cc2)C(=O)N[C@@H](Cc2ccc3ccccc3c2)C(=O)NC2(C(=O)N[C@@H](CCC(=O)N(C)C)C(=O)N[C@@H](CC(N)=O)C(=O)N[C@@H](Cc3cccnc3)C(=O)N(C)CC(N)=O)CCOCC2)NC1=O [compound 71] (Tfa-[Pen]NT[Trp(7-Me)][Dab(NMeAc)][Pen]Y(Me2NCH2CH2)[2Nal][Thp]E(NMe2)N[3Pal][Sar]-NH2; disulfide 1-6 (inferred))
157	4.3	CC(=O)NCCCC[C@@H]1NC(=O)[C@H](Cc2c[nH]c3c(C)cccc23)NC(=O)[C@H]([C@@H](C)O)NC(=O)[C@H](CC(N)=O)NC(=O)[C@@H](NC(=O)[C@@H](CCCC[N+](C)(C)C)NC(=O)C(F)(F)F)C(C)(C)SSC(C)(C)[C@@H](C(=O)N[C@@H](Cc2ccc(OCCN)cc2)C(=O)N[C@@H](Cc2ccc3ccccc3c2)C(=O)NC2(C(=O)N[C@@H](CCCCNC(C)=O)C(=O)N[C@@H](CC(N)=O)C(=O)N[C@@H](Cc3cccnc3)C(=O)N(C)CC(N)=O)CCOCC2)NC1=O [compound 80] (Tfa-[dLys(Me3)][Pen]NT[Trp(7-Me)]K(Ac)[Pen][AEF][2Nal][Thp]K(Ac)N[3Pal][Sar]-NH2; disulfide 2-7 (inferred))
152	5.8	Cc1cccc2c(C[C@@H]3NC(=O)[C@H]([C@@H](C)O)NC(=O)[C@H](CC(=O)N(C)C)NC(=O)[C@@H](NC(=O)CCCCC[N+](C)(C)C)C(C)(C)SSC(C)(C)[C@@H](C(=O)N[C@@H](Cc4ccc(OCCN(C)C)cc4)C(=O)N[C@@H](Cc4ccc5ccccc5c4)C(=O)NC4(C(=O)N[C@@H](CCC(=O)O)C(=O)N[C@@H](CC(N)=O)C(=O)N[C@@H](Cc5cccnc5)C(=O)N(C)CC(=O)N(C)C)CCOCC4)NC(=O)[C@H](CCC(=O)N(C)C)NC3=O)c[nH]c12 [compound 97, 5cpaCO-Pen(3)-N(N(Me)2)-T-7MeW-Q(N(Me)2)-Pen(3)-AEF(N(Me)2)-2Nal-THP-E-N-3Pya-Sar-CON(Me)2] ({Hexanoyl(6-NMe3+)}-[Pen]D(NMe2)T[Trp(7-Me)]E(NMe2)[Pen]Y(Me2NCH2CH2)[2Nal][Thp]EN[3Pal][Sar]-NMe2; disulfide 1-6)
139	4.6	CC(=O)NC[C@H](NC(=O)C1(NC(=O)[C@H](Cc2ccc3ccccc3c2)NC(=O)[C@H](Cc2ccc(OCCN(C)C)cc2)NC(=O)[C@H]2NC(=O)[C@H](CCCCN(C)C(C)=O)NC(=O)[C@H](Cc3c[nH]c4c(C)cccc34)NC(=O)[C@H]([C@@H](C)O)NC(=O)[C@H](CC(=O)N(C)C)NC(=O)[C@@H](NC(C)=O)C(C)(C)SSC2(C)C)CCOCC1)C(=O)N[C@@H](CC(N)=O)C(=O)N[C@@H](Cc1cccnc1)C(=O)N(C)CC(=O)N(C)C [compound 98, MeCO-Pen(3)-N(N(Me)2)-T-7MeW-K(NMeAc)-Pen(3)-AEF(N(Me)2)-2Nal-THP-Dap(Ac)-N-3Pya-Sar-CON(Me)2] (Ac-[Pen]D(NMe2)T[Trp(7-Me)][Lys(Me)](Ac)[Pen]Y(Me2NCH2CH2)[2Nal][Thp][Dap](Ac)N[3Pal][Sar]-NMe2; disulfide 1-6)
